Test results published in ChEMBL document CHEMBL5104164, “Design, synthesis, and biological evaluation of pyrrolopyrimidine derivatives as novel Bruton's tyrosine kinase (BTK) inhibitors” (Eur J Med Chem, 2022).
Activity calls are given as the source filed them. The rule behind the calls is not given here.

Legend:
TMD8 [1] = experiment: Antiproliferative activity against human TMD8 cells incubated for 72 hrs by CellTiter-Glo assay; details: TMD8, 72 h
[2] = Tmax in male BALB/c mouse at 2 mg/kg, iv; type: ADME, organism-based; details: in vivo
[3] = AUC (0 to infinity) in male BALB/c mouse at 2 mg/kg, iv; type: ADME, organism-based; parameters: time infinity, dose 2 mg/kg, route iv; details: in vivo
[4] = Cmax in male BALB/c mouse at 10 mg/kg, po; type: ADME, organism-based; parameters: dose 10 mg/kg, route po; details: in vivo
[5] = AUC (0 to infinity) in male BALB/c mouse at 10 mg/kg, po; type: ADME, organism-based; parameters: time infinity, dose 10 mg/kg, route po; details: in vivo
[6] = target: Tyrosine-protein kinase BTK (Homo sapiens, UniProt Q06187); experiment: Inhibition of BTK (unknown origin) assessed as residual percent of control at 1 uM measured by DiscoverX kinome scan assay relative to control
Tyrosine-protein kinase BTK, sequence (Q06187 whole entry): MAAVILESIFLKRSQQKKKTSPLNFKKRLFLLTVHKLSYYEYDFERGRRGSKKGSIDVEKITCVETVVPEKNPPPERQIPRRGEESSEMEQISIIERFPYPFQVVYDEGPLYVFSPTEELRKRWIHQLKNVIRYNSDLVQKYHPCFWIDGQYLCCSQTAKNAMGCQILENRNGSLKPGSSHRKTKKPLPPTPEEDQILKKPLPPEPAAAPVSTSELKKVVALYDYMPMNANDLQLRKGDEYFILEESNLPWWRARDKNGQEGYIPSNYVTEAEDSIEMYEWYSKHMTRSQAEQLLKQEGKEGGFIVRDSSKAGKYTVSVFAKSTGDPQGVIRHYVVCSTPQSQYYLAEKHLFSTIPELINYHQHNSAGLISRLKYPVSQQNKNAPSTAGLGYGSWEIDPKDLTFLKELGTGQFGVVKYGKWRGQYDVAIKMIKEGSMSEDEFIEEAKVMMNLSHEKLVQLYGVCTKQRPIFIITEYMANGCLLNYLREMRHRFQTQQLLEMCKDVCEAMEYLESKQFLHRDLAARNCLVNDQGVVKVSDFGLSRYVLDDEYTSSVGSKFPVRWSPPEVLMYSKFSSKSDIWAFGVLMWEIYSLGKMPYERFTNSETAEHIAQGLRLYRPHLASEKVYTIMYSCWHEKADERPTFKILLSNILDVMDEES

[7] = target: Receptor tyrosine-protein kinase erbB-4 (Homo sapiens) (UniProt Q15303); experiment: Inhibition of ERBB4 (unknown origin) assessed as residual percent of control at 1 uM measured by DiscoverX kinome scan assay relative to control
Receptor tyrosine-protein kinase erbB-4 (Homo sapiens), sequence (Q15303 whole entry): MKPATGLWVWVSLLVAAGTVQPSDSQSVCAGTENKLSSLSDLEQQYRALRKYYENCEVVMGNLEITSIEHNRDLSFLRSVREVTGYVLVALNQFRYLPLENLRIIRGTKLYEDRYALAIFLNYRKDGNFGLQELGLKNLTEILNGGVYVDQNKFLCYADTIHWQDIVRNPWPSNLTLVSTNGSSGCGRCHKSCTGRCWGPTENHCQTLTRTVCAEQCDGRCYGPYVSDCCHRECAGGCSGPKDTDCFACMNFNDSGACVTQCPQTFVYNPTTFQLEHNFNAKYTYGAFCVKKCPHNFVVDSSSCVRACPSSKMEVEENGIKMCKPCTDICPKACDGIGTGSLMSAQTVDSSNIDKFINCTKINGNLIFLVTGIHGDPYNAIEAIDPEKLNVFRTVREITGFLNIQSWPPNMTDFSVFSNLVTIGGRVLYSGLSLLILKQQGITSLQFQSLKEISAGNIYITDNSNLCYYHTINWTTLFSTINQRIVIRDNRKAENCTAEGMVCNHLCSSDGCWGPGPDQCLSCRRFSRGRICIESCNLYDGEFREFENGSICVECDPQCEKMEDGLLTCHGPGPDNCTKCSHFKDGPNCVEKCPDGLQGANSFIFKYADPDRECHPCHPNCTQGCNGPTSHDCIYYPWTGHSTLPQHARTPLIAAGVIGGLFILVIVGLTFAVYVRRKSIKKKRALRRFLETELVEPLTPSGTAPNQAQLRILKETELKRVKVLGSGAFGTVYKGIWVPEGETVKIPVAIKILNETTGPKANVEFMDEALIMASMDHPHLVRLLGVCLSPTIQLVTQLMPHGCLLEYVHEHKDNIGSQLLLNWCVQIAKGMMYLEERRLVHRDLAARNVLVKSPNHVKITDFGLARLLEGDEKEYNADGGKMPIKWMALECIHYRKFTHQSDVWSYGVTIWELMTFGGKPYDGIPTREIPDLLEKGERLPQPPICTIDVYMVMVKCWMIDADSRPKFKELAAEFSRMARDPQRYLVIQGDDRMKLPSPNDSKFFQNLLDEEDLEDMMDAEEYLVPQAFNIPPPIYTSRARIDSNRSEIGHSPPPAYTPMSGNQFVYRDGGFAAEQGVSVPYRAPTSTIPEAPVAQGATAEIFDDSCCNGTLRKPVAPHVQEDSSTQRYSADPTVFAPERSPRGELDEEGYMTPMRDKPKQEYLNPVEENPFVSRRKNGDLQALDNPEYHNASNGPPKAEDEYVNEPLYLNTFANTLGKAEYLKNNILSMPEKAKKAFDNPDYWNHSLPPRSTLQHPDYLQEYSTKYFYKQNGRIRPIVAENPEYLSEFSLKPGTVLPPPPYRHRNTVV

[8] = target: T1, Tyrosine-protein kinase JAK3 (Homo sapiens) (UniProt P52333); experiment: Inhibition of Jak3 (unknown origin) assessed as residual percent of control at 1 uM measured by DiscoverX kinome scan assay relative to control
T1 sequence (whole entry): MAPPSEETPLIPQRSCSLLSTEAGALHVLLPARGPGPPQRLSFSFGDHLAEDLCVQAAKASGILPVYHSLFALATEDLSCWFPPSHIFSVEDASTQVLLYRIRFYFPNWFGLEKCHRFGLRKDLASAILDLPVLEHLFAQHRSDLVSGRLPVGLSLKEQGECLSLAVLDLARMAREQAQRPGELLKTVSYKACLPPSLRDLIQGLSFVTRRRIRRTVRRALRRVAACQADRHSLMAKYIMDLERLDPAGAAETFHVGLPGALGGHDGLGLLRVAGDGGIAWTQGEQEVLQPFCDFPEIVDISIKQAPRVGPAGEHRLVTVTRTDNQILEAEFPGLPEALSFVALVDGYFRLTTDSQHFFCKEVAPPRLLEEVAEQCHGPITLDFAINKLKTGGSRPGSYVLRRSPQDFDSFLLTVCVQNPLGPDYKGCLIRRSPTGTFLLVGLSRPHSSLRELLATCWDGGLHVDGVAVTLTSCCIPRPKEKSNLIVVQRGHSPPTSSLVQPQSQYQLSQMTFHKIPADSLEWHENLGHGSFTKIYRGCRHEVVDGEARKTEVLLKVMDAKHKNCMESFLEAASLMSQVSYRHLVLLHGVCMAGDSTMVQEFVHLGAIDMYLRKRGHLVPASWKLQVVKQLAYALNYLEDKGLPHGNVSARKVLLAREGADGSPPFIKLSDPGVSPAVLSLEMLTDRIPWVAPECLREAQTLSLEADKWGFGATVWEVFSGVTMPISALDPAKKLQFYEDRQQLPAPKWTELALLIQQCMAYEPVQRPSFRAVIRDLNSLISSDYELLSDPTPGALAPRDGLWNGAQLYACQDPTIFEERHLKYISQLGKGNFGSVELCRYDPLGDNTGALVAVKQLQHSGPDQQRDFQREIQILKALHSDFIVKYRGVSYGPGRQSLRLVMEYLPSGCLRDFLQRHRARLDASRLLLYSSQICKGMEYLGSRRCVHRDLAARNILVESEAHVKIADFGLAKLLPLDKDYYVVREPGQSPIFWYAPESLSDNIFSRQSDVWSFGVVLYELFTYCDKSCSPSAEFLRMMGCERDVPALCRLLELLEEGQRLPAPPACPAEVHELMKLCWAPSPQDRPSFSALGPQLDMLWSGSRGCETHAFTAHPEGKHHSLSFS

OCI-Ly3 = experiment: Antiproliferative activity against human OCILY3 cells incubated for 72 hrs by CellTiter-Glo assay; type: functional, cell-based; details: OCI-Ly3, 72 h
DOHH-2 = experiment: Antiproliferative activity against human DOHH-2 cells incubated for 72 hrs by CellTiter-Glo assay; type: functional, cell-based; details: DOHH-2, 72 h
SU-DHL-6 = experiment: Antiproliferative activity against human SU-DHL-6 cells incubated for 72 hrs by CellTiter-Glo assay; type: functional, cell-based; details: SU-DHL-6, 72 h
[9] = Antiproliferative activity against human MINO cells incubated for 72 hrs by CellTiter-Glo assay; type: functional, cell-based
Raji = experiment: Antiproliferative activity against human Raji cells incubated for 72 hrs by CellTiter-Glo assay; type: functional, cell-based
Ramos = experiment: Antiproliferative activity against human Ramos cells incubated for 72 hrs by CellTiter-Glo assay; type: functional, cell-based
TMD8 [10] = experiment: Cell cycle arrest in human TMD8 cells assessed as accumulation of cells at G0/G1 phase at 1 nM after 48 hrs by propidium iodide staining based flow cytometric analysis (reference value: 32.9%); type: functional
TMD8 [11] = experiment: Cell cycle arrest in human TMD8 cells assessed as accumulation of cells at G0/G1 phase at 10 nM after 48 hrs by propidium iodide staining based flow cytometric analysis (reference value: 32.9%); type: functional
TMD8 [12] = experiment: Cell cycle arrest in human TMD8 cells assessed as accumulation of cells at S phase at 10 nM after 48 hrs by propidium iodide staining based flow cytometric analysis (reference value: 49.3%); type: functional
TMD8 [13] = experiment: Cell cycle arrest in human TMD8 cells assessed as accumulation of cells at G0/G1 phase at 100 nM after 48 hrs by propidium iodide staining based flow cytometric analysis (reference value: 32.9%); type: functional
TMD8 [14] = experiment: Induction of apoptosis in human TMD8 cells assessed as apoptotic cells 10 nM incubated for 72 hrs by AnnexinV-FITC/propidium iodide staining based flow cytometric analysis; type: functional
TMD8 [15] = experiment: Induction of apoptosis in human TMD8 cells assessed as apoptotic cells 1000 nM incubated for 72 hrs by AnnexinV-FITC/propidium iodide staining based flow cytometric analysis; type: functional
[16] = target: Voltage-gated inwardly rectifying potassium channel KCNH2 (Homo sapiens, UniProt Q12809); experiment: Inhibition of hERG; type: toxicity
Voltage-gated inwardly rectifying potassium channel KCNH2, sequence (Q12809 whole entry): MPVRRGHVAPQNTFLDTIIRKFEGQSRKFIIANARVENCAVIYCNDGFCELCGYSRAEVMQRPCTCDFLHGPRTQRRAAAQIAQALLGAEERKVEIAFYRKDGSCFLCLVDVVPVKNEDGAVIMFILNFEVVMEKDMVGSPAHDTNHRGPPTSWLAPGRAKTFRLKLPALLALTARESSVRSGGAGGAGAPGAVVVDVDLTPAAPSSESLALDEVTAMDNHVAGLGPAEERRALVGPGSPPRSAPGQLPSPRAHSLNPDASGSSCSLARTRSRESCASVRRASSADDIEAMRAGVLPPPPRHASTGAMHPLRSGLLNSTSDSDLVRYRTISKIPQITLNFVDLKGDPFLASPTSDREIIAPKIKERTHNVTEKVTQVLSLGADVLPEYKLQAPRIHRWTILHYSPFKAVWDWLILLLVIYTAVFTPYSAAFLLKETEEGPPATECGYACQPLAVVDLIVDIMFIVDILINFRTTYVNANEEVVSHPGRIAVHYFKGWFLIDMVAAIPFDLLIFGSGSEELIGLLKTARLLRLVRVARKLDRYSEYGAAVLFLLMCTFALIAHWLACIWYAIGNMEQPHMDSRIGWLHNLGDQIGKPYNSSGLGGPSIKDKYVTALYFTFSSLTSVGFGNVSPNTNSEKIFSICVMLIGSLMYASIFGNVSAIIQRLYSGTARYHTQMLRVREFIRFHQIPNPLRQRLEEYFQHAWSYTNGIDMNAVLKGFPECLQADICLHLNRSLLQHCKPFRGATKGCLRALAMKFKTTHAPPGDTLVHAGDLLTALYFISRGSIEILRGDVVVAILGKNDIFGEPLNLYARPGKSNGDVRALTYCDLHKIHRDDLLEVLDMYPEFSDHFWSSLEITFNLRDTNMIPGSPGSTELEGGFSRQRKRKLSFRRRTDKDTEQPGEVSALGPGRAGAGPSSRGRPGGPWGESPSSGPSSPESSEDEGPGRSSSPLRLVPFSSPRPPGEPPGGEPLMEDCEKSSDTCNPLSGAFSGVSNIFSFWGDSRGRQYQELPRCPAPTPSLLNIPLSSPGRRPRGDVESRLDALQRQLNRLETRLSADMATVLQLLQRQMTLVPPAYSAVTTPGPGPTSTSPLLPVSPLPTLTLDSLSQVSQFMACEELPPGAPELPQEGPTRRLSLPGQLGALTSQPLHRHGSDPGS

TMD8 [17] = experiment: In vivo inhibition of BTK in female CB-17 SCID nude mouse xenografted with human TMD8 cells assessed as reduction in p-BTK (Tyr223) expression at 12.5 to 50 mg/kg, po administered twice daily for 21 days; type: functional, organism-based; details: dose 12.5-50 mg/kg, time 21.0 day
[18] = Toxicity in female CB-17 SCID nude mouse xenografted with human TMD8 cells assessed as reduction in lymphocytes at 50 mg/kg, po administered twice daily for 21 days; type: organism-based; details: in vivo, 504 h, time 21 day
[19] = Toxicity in female CB-17 SCID nude mouse xenografted with human TMD8 cells assessed as effect on red blood cells at 50 mg/kg, po administered twice daily for 21 days; type: organism-based; details: in vivo, 504 h, time 21 day
[20] = Toxicity in female CB-17 SCID nude mouse xenografted with human TMD8 cells assessed as effect on platelets at 50 mg/kg, po administered twice daily for 21 days; type: organism-based; details: in vivo, 504 h, time 21 day
[21] = Mutagenicity in Salmonella typhimurium TA1537 at 1.5 to 1000 ug per plate in presence of liver microsomes by AMES test; type: toxicity, Salmonella enterica subsp. enterica serovar Typhimurium; details: dose 1.5-1000 µg

## C=CC(=O)N1CC=C(c2c[nH]c3ncnc(-c4ccc(CNC(=O)c5ccccc5)c(F)c4)c23)CC1
TMD8 [1]
  IC50: 0.0026 µM
[2]
  Tmax: 1.8 min
[3]
  AUC(0-inf): 718 ng·h/mL
[4]
  Cmax: 1440 ng/mL
[5]
  AUC(0-inf): 1470 ng·h/mL
[6]
  Activity: 0.05%
[7]
  Activity: 0.55%
[8]
  Activity: 3.8%
OCI-Ly3
  IC50: > 10 µM
DOHH-2
  IC50: 5.26 µM
SU-DHL-6
  IC50: > 10 µM
[9]
  IC50: > 10 µM
Raji
  IC50: > 10 µM
Ramos
  IC50: > 10 µM
TMD8 [10]
  Activity: 33%
TMD8 [11]
  Activity: 59.2%
TMD8 [12]
  Activity: 26.4%
TMD8 [13]
  Activity: 63%
TMD8 [14]
  Activity: 19%
TMD8 [15]
  Activity: 31.4%
[16]
  IC50: 4.38 µM
TMD8 [17]
  Activity: Active
[18]
  Activity: Toxic
[19]
  Activity: Non-Toxic
[20]
  Activity: Non-Toxic
[21]
  Activity: Non-Toxic
